Measured values from patent publication US7585503B2, “Method for detecting multi-drug resistance” (priority 2005, dated 2009).

Key:
Type in all cases: cell-based, human
[1] = system: 2008/C13*5.25 resistant ovarian carcinoma cells; test: Cytotoxicity assay by colony forming ability, resistant cells; conditions: 25 μM cisplatin with or without 5 mU sialidase, 1 h, about two weeks of growth
Procedure: To confirm the sialidase effects on F-DDP internalization and sensitizing the resistant cells to the drug, the resistant cells were tested in cytotoxicity assay to determine colony formation ability with cisplatin treatments in the presence and absence of sialidase. Resistant cells were treated with high concentration of cisplatin (25 μM, an IC-50 about 10 fold higher than that of the sensitive cells) in the absence and presence of 5 mU sialidase (see table 1 in “Experimental procedures”). The colony formation ability of MDR cells was reduced 40-50%, when sialidase concomitant with cisplatin was added to the resistant cells compare to the resistant cells treated with the same amounts of cisplatin in the absence of sialidase. The data, thus, support the sialidase-mediated drug internalization and increasing the cytotoxicity of the drug.
Colony forming ability assay was performed by seeding 100 cells/ml of sensitive or resistant isotypes per each well/ml in 12 well plates. Cells were cultured with DMEM, 10% FBS overnight. The assay was performed in 4 plates for each of the sensitive or resistant isotypes in the format shown in Table 1 and was repeated three times. 2008 isotype pair were used in the experiment. […]

[2] = system: 2008 sensitive ovarian carcinoma cells; test: Cytotoxicity assay by colony forming ability, sensitive cells; conditions: 25 μM cisplatin, 1 h
Procedure: Colony forming ability assay was performed by seeding 100 cells/ml of sensitive or resistant isotypes per each well/ml in 12 well plates. Cells were cultured with DMEM, 10% FBS overnight. The assay was performed in 4 plates for each of the sensitive or resistant isotypes in the format shown in Table 1 and was repeated three times. 2008 isotype pair were used in the experiment. Sensitive cells could not tolerate such high concentration of cisplatin, used in the assay, to serve the resistant cells, as the IC-50 was 10 fold higher for resistant cells compare to their parental susceptible phenotype.
Table 1: Colony forming ability was performed by seeding 100 cells/ml of sensitive or resistant isotypes per each well/ml in 12 well plates. Cells were cultured with DMEM, 10% FBS overnight. The assay was performed in 4 plates for each of the sensitive or resistant isotypes in the above format and was repeated three times for each cell pair. plate 1 (control): DMEM, 10%FBS; plate 2: DMEM containing 25 μM cisplatin; plate 3: DMEM containing 25 μM cisplatin and 5 mU neuraminidase (AUS); plate 4: DMEM containing 5 mU neuraminidase.
After one hour incubation at 37 degree C., 5% CO2, the media of different treatments were removed from the wells. Cells were then washed with DMEM and was replaced by fresh DMEM, 10% FBS. Incubation continued for about two more weeks for the colonies to appear. […]

2008/C13*5.25 = test: Cisplatin resistance (IC-50) of resistant sub-line versus parental line
Source text: (§1) Three isogenic pairs of sensitive and multidrug resistant phenotypes of human ovarian carcinoma cell lines were studied. […] The morphology of the resistant cells differed from the sensitive isotypes, consistent with the cell surface molecular modifications.

A2780/CP = test: as above
Source text: as §1

IGROV-1/CP = test: as above; conditions: IGROV-1/CP versus parental IGROV-1
Source text: as §1

In the case of `N.N.[Cl][Pt][Cl]` [cisplatin, Dichlorodiaminocisplatin], the “cell growth / colony formation relative to control (plate #1 = 100% growth)” value [1] is reported as “about 80 % of the control”, the “colony formation (in words)” value [2] is reported as “almost no real colony formed” and the “fold increase in IC-50 to cisplatin resistance” value (“fold increase” below) (2008/C13*5.25; 2008/C13*5.25 versus parental 2008) is reported as 10.4 fold. The IC50 (2008/C13*5.25; resistant cells, the concentration used in the colony assay) was 25 µM, the “fold increase” value (A2780/CP) was 6.9 fold and the “fold increase” value (IGROV-1/CP) was 7.6 fold.
